Measurements as given in patent publication US4855287A, “Aminoglycoside compounds, processes for production thereof, and pharamaceutical composition containing the same” (Kowa Company, Ltd., priority 1985, dated 1989).
Where two headings read alike, the source gives them in different places.

Key:
[1] = test system: Bacillus subtilis ATCC 6633; test: Test for antibacterial activity (paper disk, diameter of inhibitory zone, before and after incubation in rat liver/kidney homogenate); format: cell-based; details: 200 mcq/ml, 8 mm paper disk
Protocol: Each of the test compounds shown in the following table was dissolved in a concentration of 200 mcq/ml in a homogenate of a 10% physiological saline solution of an organ of a rat, and incubated at 37° C. for 2 hours. An enzymatic reaction was stopped by adding an equal amount of ethanol. The antibacterial activity of the test compound before incubation was compared with that after incubation. The incubation was carried out in an equal amount mixture of a liver homogenate and a kidney homogenate. The antibacterial activity was measured by a paper disk having a diameter of 8 mm using Bacillus subtilis ATCC 6633 as a test organism, and shown by the diameter of the resulting inhibitory zone.

[2] = Test for concentrations in blood, intrarectal administration; design: species or system Male rats; details: rat, in vivo
Protocol: Male rats (body weight 250-350 g: n=3) which had been caused to fast for 18 hours prior to administration were anesthetized with pentobarbirtal. After the abdomen was incised, the upper part of the duodenum was tied. Each of the test compounds was dissolved in water so that its concentration became 12.5 mg/ml as its starting antibiotic (the compound of formula II), and the solution was intraduodenally administered to the rats in a dose of 2 ml/kg. After the administration, blood was drawn periodically from the tail vein, and the concentration of the starting antibiotic in the blood was measured by antimicrobial assay and liquid chromatography.
Male rats (body weight 250-350 g: n=3) which had been caused to fast for 18 hours prior to administration were anesthetized with pentobarbirtal. After the abdomen was incised, the lower part of the rectum was tied. Each of the test compounds was administered intrarectally in the same dose in the same manner as in (1) above, and the concentration of the starting antibiotic in the blood was measured in the same way as in (1) above.

[3] = ATCC6633, after incubation at 37° C. for 2 hours in rat liver homogenate and kidney homogenate, read-out: Diameter of the inhibitory zone, after incubation
[4] = ATCC6633, before incubation, read-out: Diameter of the inhibitory zone, before incubation

| SMILES | zone of inhibition at 200 µg/mL [1, 3] | zone of inhibition at 200 µg/mL [1, 4] | Maximum concentration in blood Cmax [2] | Tmax [2] |
| --- | --- | --- | --- | --- |
| CC(N)C1CCC(N)C(OC2C(N)CC(O)C(N(C)C(=O)CNC(=O)[C@@H](N)CCC(=O)OCCCOC(=O)CC[C@@H](C)[C@H]3CC[C@H]4[C@@H]5CC[C@@H]6C[C@H](O)CC[C@]6(C)[C@H]5C[C@H](O)[C@]34C)C2O)O1 (stereo partly drawn) [Example 20, 2"-N-[γ-O-(3-deoxycholyloxypropyl)-L-glutamyl]-5-de-O-methyl-KA-6606I] | 21.8 mm | 14.1 mm | 7.76 µg/mL | 30 min |
| CC(=O)OC1CCC2(C)C(CCC3C2CC(OC(C)=O)C2(C)C(C(C)CCC(=O)OCCCCOC(=O)CCC(N)C(=O)NCC(=O)N(C)C4C(O)CC(N)C(OC5OC(C(C)N)CCC5N)C4O)CCC32)C1 [Example 27, 2"-N-{γ-O-[4-(3,12-di-O-acetyldeoxycholyloxy)butyl]-L-glutamyl}-5-de-O-methyl-KA-6606I] | 23.2 mm | 13.5 mm | 5.30 µg/mL | 30 min |
| CC(N)C1CCC(N)C(OC2C(N)CC(O)C(N(C)C(=O)CNC(=O)[C@@H](N)CCC(=O)N[C@@H](Cc3ccccc3)C(=O)O)C2O)O1 (stereo partly drawn) [Example 47, 2"-N-{N^γ -[(s)-1-carboxy-2-phenyl-ethyl]-L-glutaminyl}-5-de-O-methyl-KA-6606I] | 17.9 mm | 9.5 mm | – | – |
| CCCCCCCCCC(=O)NC(CCCCNC(=O)CC[C@H](N)C(=O)NCC(=O)N(C)C1C(O)CC(N)C(OC2OC(C(C)N)CCC2N)C1O)C(=O)OC (stereo partly drawn) [Example 48, 2"-N-{N^γ -[5-(decanoylamino)-5-(methoxycarbonyl)pentyl]-L-glutaminyl}-5-de-O-methyl-KA-6606I] | 18.3 mm | 18 mm | – | – |
| CCCCCCCCCC(=O)NCCCCC(NC(=O)CC[C@H](N)C(=O)NCC(=O)N(C)C1C(O)CC(N)C(OC2OC(C(C)N)CCC2N)C1O)C(=O)OC (stereo partly drawn) [Example 49, 2"-N-{N^γ -[5-(decanoylamino)-1-(methoxycarbonyl)pentyl]-L-glutaminyl}-5-de-O-methyl-KA-6066I] | 16.1 mm | 15.9 mm | – | – |
| CCCCCCCCCC(=O)NCCCNC(=O)CC[C@H](N)C(=O)NCC(=O)N(C)C1C(O)C(OC2OC(C(C)N)CCC2N)C(N)C(O)C1OC (stereo partly drawn) [Example 50, 2"-N-[N^γ -(3-decanoylaminopropyl)-L-glutaminyl)fortimicin A] | 23.6 mm | 15 mm | – | – |
| COc1ccc(CSC[C@H](N)C(=O)NCC(=O)N(C)C2C(O)CC(N)C(OC3OC(C(C)N)CCC3N)C2O)cc1 (stereo partly drawn) [Example 51, 2"-N-[S-(p-methoxybenzyl)-L-cysteinyl]-5-de-O-methyl-KA-6606I] | 25.4 mm | 18.3 mm | – | – |
| CC(N)C1CCC(N)C(OC2C(N)CC(O)C(N(C)C(=O)CNC(=O)[C@@H](N)CSCc3ccc([N+](=O)[O-])cc3)C2O)O1 (stereo partly drawn) [Example 52, 2"-N-[S-(p-nitrobenzyl)-L-cysteinyl]-5-de-O-methyl-KA-6606I] | 26.2 mm | 20.7 mm | – | – |
| CC(N)C1CCC(N)C(OC2C(N)CC(O)C(N(C)C(=O)CNC(=O)[C@@H](N)CSC(c3ccccc3)c3ccccc3)C2O)O1 (stereo partly drawn) [Example 53, 2"-N-(S-diphenylmethyl-L-cysteinyl)-5-de-O-methyl-KA-6606I] | 24.3 mm | 16.5 mm | – | – |
| CC(N)C1CCC(N)C(OC2C(N)CC(O)C(N(C)C(=O)CNC(=O)[C@@H](N)CSCc3ccncc3)C2O)O1 (stereo partly drawn) [Example 54, 2"-N-[S-(4-picolyl)-L-cysteinyl]-5-de-O-methyl-KA-6606I] | 25.3 mm | 14.1 mm | – | – |
| CCCCCCCCCC(=O)SC[C@H](N)C(=O)NCC(=O)N(C)C1C(O)CC(N)C(OC2OC(C(C)N)CCC2N)C1O (stereo partly drawn) [Example 55, 2"-N-(S-decanoyl-L-cysteinyl)-5-de-O-methyl-KA-6606I] | 18.6 mm | 10.3 mm | – | – |
| CCCCCCCCCC(=O)OCCCOC(=O)CC[C@H](N)C(=O)NCC(=O)N(C)C1CCC(N)C(OC2OC(C(C)N)CCC2N)C1O (stereo partly drawn) [Example 56, 2"-N-[N^γ -(3-decanoyloxypropyl)-L-glutamyl)-5-demethoxy-KA-6606I] | 24.6 mm | 17.5 mm | – | – |
| CCCCCCCCCC(=O)NCCCNC(=O)CC[C@H](N)C(=O)NCC(=O)N(C)C1C(OC)CC(N)C(OC2OC(CNC)CCC2N)C1O (stereo partly drawn) [Example 57, 2"-N-[N^γ -(3-decanoylaminopropyl)-L-glutaminyl]-KA-7038I] | 23 mm | 15.9 mm | – | – |
